± gives the standard deviation of the averaged measurements.
Columns and labels:
Experiment in all cases: relative viability vs DMSO control (72 h) (fraction); higher = more viable cells
G401 = tested on: G401
How it was run: (§1)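 Densities for seeding sarcoma cell lines into 384-well plates were set to give 80–90% confluence. After 24 h, 2.5 µl of serially diluted compound from source plates of 10 mM to 0.0002 mM went in, and plates stayed 72 h at 37 °C in 5% CO2 with 0.1% DMSO vehicle and a 5 µM positive control. Percent growth from ATPLite readings, averaged over up to triplicate wells, served as relative viability, rescaled so 1 means full and 0 means none.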

HT1080 = tested on: HT1080
How it was run: as §1

KHOS-NP = tested on: KHOS-NP
How it was run: as §1

MES-SA = tested on: MES-SA
How it was run: as §1

RD-ES = tested on: RD-ES
How it was run: as §1

RD = tested on: RD
How it was run: as §1

SK-ES-1 = tested on: SK-ES-1
How it was run: as §1

SK-LMS-1 = tested on: SK-LMS-1
How it was run: as §1

SW1353 = tested on: SW1353
How it was run: as §1

SW684 = tested on: SW684
How it was run: as §1

SW872 = tested on: SW872
How it was run: as §1

VA-ES-BJ = tested on: VA-ES-BJ
How it was run: as §1

`C[C@H]1Oc2cc(cnc2N)-c2c(nn(C)c2C#N)CN(C)C(=O)c2ccc(F)cc21` [Lorlatinib] gave a relative viability (G401; 0.00017 µM) of 1.05 ± 0.047, a relative viability (G401; 0.00051 µM) of 1.05 ± 0.037 and a relative viability (G401; 0.00152 µM) of 1.04 ± 0.011. For the same compound, the relative viability (G401; 0.00457 µM) was 1.03 ± 0.016, the relative viability (G401; 0.01372 µM) was 1.06 ± 0.013 and the relative viability (G401; 0.04115 µM) was 1.02 ± 0.063. The relative viability (G401; 0.1235 µM) was 0.968 ± 0.0083, the relative viability (G401; 0.3704 µM) was 0.984 ± 0.025 and the relative viability (G401; 1.111 µM) was 1 ± 0.052. It also gave a relative viability (G401; 3.333 µM) of 1.01 ± 0.047, a relative viability (G401; 10 µM) of 0.916 ± 0.063 and a relative viability (HT1080; 0.00017 µM) of 1.09 ± 0.018. For the same compound, the relative viability (HT1080; 0.00051 µM) was 1.08 ± 0.033, the relative viability (HT1080; 0.00152 µM) was 1.09 ± 0.083 and the relative viability (HT1080; 0.00457 µM) was 1.1 ± 0.037. The relative viability (HT1080; 0.01372 µM) was 1.08 ± 0.015, the relative viability (HT1080; 0.04115 µM) was 1.03 ± 0.06 and the relative viability (HT1080; 0.1235 µM) was 1.07 ± 0.025. For the same compound, the relative viability (HT1080; 0.3704 µM) was 1.09 ± 0.044, the relative viability (HT1080; 1.111 µM) was 1.03 ± 0.067 and the relative viability (HT1080; 3.333 µM) was 1.09 ± 0.051. The relative viability (HT1080; 10 µM) was 1.05 ± 0.042, the relative viability (KHOS-NP; 0.00017 µM) was 1.09 ± 0.014 and the relative viability (KHOS-NP; 0.00051 µM) was 1.091 ± 0.0096. It also gave a relative viability (KHOS-NP; 0.00152 µM) of 1.09 ± 0.016, a relative viability (KHOS-NP; 0.00457 µM) of 1.07 ± 0.031 and a relative viability (KHOS-NP; 0.01372 µM) of 1.07 ± 0.03. The relative viability (KHOS-NP; 0.04115 µM) was 1.06 ± 0.013, the relative viability (KHOS-NP; 0.1235 µM) was 1.02 ± 0.039 and the relative viability (KHOS-NP; 0.3704 µM) was 1.07 ± 0.025. The relative viability (KHOS-NP; 1.111 µM) was 0.999 ± 0.016, the relative viability (KHOS-NP; 3.333 µM) was 1.02 ± 0.011 and the relative viability (KHOS-NP; 10 µM) was 0.954 ± 0.05. It also gave a relative viability (MES-SA; 0.00017 µM) of 0.955 ± 0.024, a relative viability (MES-SA; 0.00051 µM) of 0.987 ± 0.037 and a relative viability (MES-SA; 0.00152 µM) of 0.943 ± 0.04. The relative viability (MES-SA; 0.00457 µM) was 0.929 ± 0.013, the relative viability (MES-SA; 0.01372 µM) was 0.922 ± 0.026 and the relative viability (MES-SA; 0.04115 µM) was 0.923 ± 0.033. The relative viability (MES-SA; 0.1235 µM) was 0.911 ± 0.027, the relative viability (MES-SA; 0.3704 µM) was 0.919 ± 0.023 and the relative viability (MES-SA; 1.111 µM) was 0.897 ± 0.026. It also gave a relative viability (MES-SA; 3.333 µM) of 0.892 ± 0.058, a relative viability (MES-SA; 10 µM) of 0.879 ± 0.052 and a relative viability (RD-ES; 0.00017 µM) of 0.973 ± 0.021. For the same compound, the relative viability (RD-ES; 0.00051 µM) was 0.96 ± 0.048, the relative viability (RD-ES; 0.00152 µM) was 0.972 ± 0.016 and the relative viability (RD-ES; 0.00457 µM) was 0.978 ± 0.012. It also gave a relative viability (RD-ES; 0.01372 µM) of 0.969 ± 0.018, a relative viability (RD-ES; 0.04115 µM) of 0.9601 ± 0.0037 and a relative viability (RD-ES; 0.1235 µM) of 0.965 ± 0.018. The relative viability (RD-ES; 0.3704 µM) was 0.891 ± 0.016, the relative viability (RD-ES; 1.111 µM) was 0.861 ± 0.026 and the relative viability (RD-ES; 3.333 µM) was 0.74 ± 0.014. The relative viability (RD-ES; 10 µM) was 0.499 ± 0.013, the relative viability (RD; 0.00017 µM) was 1.09 ± 0.057 and the relative viability (RD; 0.00051 µM) was 1.11 ± 0.035. It also gave a relative viability (RD; 0.00152 µM) of 1.11 ± 0.064, a relative viability (RD; 0.00457 µM) of 1.09 ± 0.044 and a relative viability (RD; 0.01372 µM) of 1.12 ± 0.075. For the same compound, the relative viability (RD; 0.04115 µM) was 1.07 ± 0.069, the relative viability (RD; 0.1235 µM) was 1.02 ± 0.054 and the relative viability (RD; 0.3704 µM) was 1 ± 0.032. It also gave a relative viability (RD; 1.111 µM) of 0.948 ± 0.045, a relative viability (RD; 3.333 µM) of 0.838 ± 0.016 and a relative viability (RD; 10 µM) of 0.668 ± 0.035. The relative viability (SK-ES-1; 0.00017 µM) was 1.02 ± 0.04, the relative viability (SK-ES-1; 0.00051 µM) was 1.03 ± 0.081 and the relative viability (SK-ES-1; 0.00152 µM) was 1.06 ± 0.021. For the same compound, the relative viability (SK-ES-1; 0.00457 µM) was 1.05 ± 0.044, the relative viability (SK-ES-1; 0.01372 µM) was 1.01 ± 0.045 and the relative viability (SK-ES-1; 0.04115 µM) was 1.01 ± 0.02. For the same compound, the relative viability (SK-ES-1; 0.1235 µM) was 1.023 ± 0.0029, the relative viability (SK-ES-1; 0.3704 µM) was 1.03 ± 0.021 and the relative viability (SK-ES-1; 1.111 µM) was 1 ± 0.047. The relative viability (SK-ES-1; 3.333 µM) was 0.89 ± 0.016, the relative viability (SK-ES-1; 10 µM) was 0.571 ± 0.058 and the relative viability (SK-LMS-1; 0.00017 µM) was 1.12 ± 0.06. It also gave a relative viability (SK-LMS-1; 0.00051 µM) of 1.095 ± 0.0097, a relative viability (SK-LMS-1; 0.00152 µM) of 1.081 ± 0.0044 and a relative viability (SK-LMS-1; 0.00457 µM) of 1.09 ± 0.057. It also gave a relative viability (SK-LMS-1; 0.01372 µM) of 1.1 ± 0.049, a relative viability (SK-LMS-1; 0.04115 µM) of 1.09 ± 0.082 and a relative viability (SK-LMS-1; 0.1235 µM) of 1.07 ± 0.071. For the same compound, the relative viability (SK-LMS-1; 0.3704 µM) was 1.02 ± 0.038, the relative viability (SK-LMS-1; 1.111 µM) was 1.02 ± 0.041 and the relative viability (SK-LMS-1; 3.333 µM) was 1 ± 0.052. For the same compound, the relative viability (SK-LMS-1; 10 µM) was 0.933 ± 0.015, the relative viability (SW1353; 0.00017 µM) was 1.04 ± 0.027 and the relative viability (SW1353; 0.00051 µM) was 1.06 ± 0.026. For the same compound, the relative viability (SW1353; 0.00152 µM) was 1.027 ± 0.01, the relative viability (SW1353; 0.00457 µM) was 0.992 ± 0.035 and the relative viability (SW1353; 0.01372 µM) was 0.985 ± 0.022. The relative viability (SW1353; 0.04115 µM) was 1 ± 0.04, the relative viability (SW1353; 0.1235 µM) was 0.976 ± 0.045 and the relative viability (SW1353; 0.3704 µM) was 0.889 ± 0.068. For the same compound, the relative viability (SW1353; 1.111 µM) was 0.851 ± 0.037, the relative viability (SW1353; 3.333 µM) was 0.839 ± 0.046 and the relative viability (SW1353; 10 µM) was 0.792 ± 0.023. It also gave a relative viability (SW684; 0.00017 µM) of 1.13 ± 0.053, a relative viability (SW684; 0.00051 µM) of 1.2 ± 0.059 and a relative viability (SW684; 0.00152 µM) of 1.17 ± 0.031. It also gave a relative viability (SW684; 0.00457 µM) of 1.17 ± 0.081, a relative viability (SW684; 0.01372 µM) of 1.17 ± 0.039 and a relative viability (SW684; 0.04115 µM) of 1.185 ± 0.0046. The relative viability (SW684; 0.1235 µM) was 1.15 ± 0.059, the relative viability (SW684; 0.3704 µM) was 1.09 ± 0.084 and the relative viability (SW684; 1.111 µM) was 1.14 ± 0.051. It also gave a relative viability (SW684; 3.333 µM) of 1.12 ± 0.09, a relative viability (SW684; 10 µM) of 1.12 ± 0.02 and a relative viability (SW872; 0.00017 µM) of 1.08 ± 0.012. The relative viability (SW872; 0.00051 µM) was 1.05 ± 0.034, the relative viability (SW872; 0.00152 µM) was 1.04 ± 0.044 and the relative viability (SW872; 0.00457 µM) was 1.04 ± 0.07. The relative viability (SW872; 0.01372 µM) was 1 ± 0.081, the relative viability (SW872; 0.04115 µM) was 0.956 ± 0.04 and the relative viability (SW872; 0.1235 µM) was 0.921 ± 0.079. For the same compound, the relative viability (SW872; 0.3704 µM) was 0.838 ± 0.083, the relative viability (SW872; 1.111 µM) was 0.798 ± 0.045 and the relative viability (SW872; 3.333 µM) was 0.718 ± 0.05. For the same compound, the relative viability (SW872; 10 µM) was 0.658 ± 0.034, the relative viability (VA-ES-BJ; 0.00017 µM) was 1.056 ± 0.0097 and the relative viability (VA-ES-BJ; 0.00051 µM) was 1.08 ± 0.013. It also gave a relative viability (VA-ES-BJ; 0.00152 µM) of 1.05 ± 0.032, a relative viability (VA-ES-BJ; 0.00457 µM) of 1.03 ± 0.042 and a relative viability (VA-ES-BJ; 0.01372 µM) of 1.02 ± 0.033. The relative viability (VA-ES-BJ; 0.04115 µM) was 0.989 ± 0.041, the relative viability (VA-ES-BJ; 0.1235 µM) was 0.989 ± 0.034 and the relative viability (VA-ES-BJ; 0.3704 µM) was 0.956 ± 0.048. It also gave a relative viability (VA-ES-BJ; 1.111 µM) of 0.966 ± 0.048, a relative viability (VA-ES-BJ; 3.333 µM) of 0.955 ± 0.044 and a relative viability (VA-ES-BJ; 10 µM) of 0.87 ± 0.039.
